Results on 23 molecules are retold here after patent US12319676B2, “Substituted amide compounds useful as farnesoid X receptor modulators” (BRISTOL-MYERS SQUIBB COMPANY, priority 2019, dated 2025).

The structures appear in SMILES notation.

In this test the target is T1, human FXR (Homo sapiens, UniProt Q96RI1).
T1 construct: expressed in transfected cells; host or cells: HEK293 cells stably carrying a 5xGal4 response element-luciferase reporter, transiently transfected with pcDNA3.1-Gal4-FXR
T1 sequence (Q96RI1 262-486 limits assumed): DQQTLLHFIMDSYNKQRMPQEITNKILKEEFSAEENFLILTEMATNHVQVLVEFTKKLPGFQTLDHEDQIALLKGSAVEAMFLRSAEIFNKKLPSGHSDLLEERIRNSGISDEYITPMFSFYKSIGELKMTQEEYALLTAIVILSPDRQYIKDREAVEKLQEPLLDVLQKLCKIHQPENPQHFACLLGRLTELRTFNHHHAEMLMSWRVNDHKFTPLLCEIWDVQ
The test can be described thus: transient human FXR/Gal4-luciferase reporter assay. As to conditions: Gal4-hFXR fusion construct, luciferase reporter in HEK293 cells; overnight incubation; response as percentage of 8 μM GW-4064 control. Type of test: cell-based. The method, boiled down:
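HEK293 cells stably carrying a 5×Gal4-response-element firefly luciferase reporter were transiently transfected with a Gal4 DBD-human FXR LBD fusion, then treated overnight with compounds at 37 °C. Steady-Glo luminescence, minus DMSO background, was expressed as percent of the response to 8 μM GW-4064.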
`CC(C)(C)c1noc(C23CCC(CN(C(=O)C4CCS(=O)(=O)CC4)c4cccc(P(C)(C)=O)c4)(CC2)CC3)n1` [Example 47, N-((4-(3-(tert-butyl)-1,2,4-oxadiazol-5-yl)bicyclo[2.2.2]octan-1-yl)methyl)-N-(3-(dimethylphosphoryl)phenyl)tetrahydro-2H-thiopyran-4-carboxamide 1,1-dioxide]: the EC50 was determined as 4000 nM.

`CCNC(=O)c1cccc(N(CC23CCC(c4noc(C(C)(F)F)n4)(CC2)CC3)C(=O)C23CC(F)(C2)C3)c1` [Example 28, N-((4-(5-(1,1-difluoroethyl)-1,2,4-oxadiazol-3-yl)bicyclo[2.2.2]octan-1-yl)methyl)-N-(3-(ethylcarbamoyl)phenyl)-3-fluorobicyclo[1.1.1]pentane-1-carboxamide] came in with an EC50 of 210 nM.

`N#Cc1cccc(N(CC23CCC(c4noc(C(F)(F)F)n4)(CC2)CC3)C(=O)[C@H]2C[C@](O)(C(F)(F)F)C2)c1` [Example 115, (1S,3S)-N-(3-cyanophenyl)-3-hydroxy-3-(trifluoromethyl)-N-((4-(5-(trifluoromethyl)-1,2,4-oxadiazol-3-yl)bicyclo[2.2.2]octan-1-yl)methyl)cyclobutane-1-carboxamide] came in with an EC50 of 436 nM.

As to `CC(F)(F)c1nc(C23CCC(CN(C(=O)C4CCC(F)(F)CC4)c4cccc(S(=O)(=O)NC5CC5)c4)(CC2)CC3)no1` [Example 20, N-(3-(N-cyclopropylsulfamoyl)phenyl)-N-((4-(5-(1,1-difluoroethyl)-1,2,4-oxadiazol-3-yl)bicyclo[2.2.2]octan-1-yl)methyl)-4,4-difluorocyclohexane-1-carboxamide], the EC50 was determined as 4000 nM.

In turn, `CC(F)(F)c1nc(C23CCC(CN(c4cccc(C(F)(F)F)c4)C(=O)[C@H]4C[C@](O)(C(F)(F)F)C4)(CC2)CC3)no1` [Example 15, N-((4-(5-(1,1-difluoroethyl)-1,2,4-oxadiazol-3-yl)bicyclo[2.2.2]octan-1-yl)methyl)-3-hydroxy-3-(trifluoromethyl)-N-(3-(trifluoromethyl)phenyl)cyclobutane-1-carboxamide] had an EC50 of 176 nM.

In the case of `CC(C)(C#N)Oc1ccc(Nc2cccc(N(CC34CCC(c5ccc(C(C)(F)F)cn5)(CC3)CC4)C(=O)[C@H]3C[C@](O)(C(F)(F)F)C3)c2)cc1` [Example 92, (1S,3S)—N-(3-((4-((2-cyanopropan-2-yl)oxy)phenyl)amino)phenyl)-N-((4-(5-(1,1-difluoroethyl)pyridin-2-yl)bicyclo[2.2.2]octan-1-yl)methyl)-3-hydroxy-3-(trifluoromethyl)cyclobutane-1-carboxamide], the EC50 was found to be 2030 nM.

Molecule `NC(=O)c1nc(C23CCC(CN(c4cccc(Br)c4)C(=O)[C@H]4C[C@](O)(C(F)(F)F)C4)(CC2)CC3)no1` [Example 139, 3-(4-(((1S,3S)—N-(3-bromophenyl)-3-hydroxy-3-(trifluoromethyl)cyclobutane-1-carboxamido)methyl)bicyclo[2.2.2]octan-1-yl)-1,2,4-oxadiazole-5-carboxamide] gave an EC50 of 1450 nM.

The molecule `CC(C)(C)c1noc(C23CCC(CN(C(=O)C45CC(F)(C4)C5)c4cccc(Br)c4)(CC2)C3)n1` [Example 132, N-(3-bromophenyl)-N-((4-(3-(tert-butyl)-1,2,4-oxadiazol-5-yl)bicyclo[2.2.1]heptan-1-yl)methyl)-3-fluorobicyclo[1.1.1]pentane-1-carboxamide] showed an EC50 of 498 nM.

For the molecule `COc1cccc(N(CC23CCC(c4noc(C(C)(F)F)n4)(CC2)CC3)C(=O)C23CC(F)(C2)C3)c1` [Example 129, N-((4-(5-(1,1-difluoroethyl)-1,2,4-oxadiazol-3-yl)bicyclo[2.2.2]octan-1-yl)methyl)-3-fluoro-N-(3-methoxyphenyl)bicyclo[1.1.1]pentane-1-carboxamide], a half-maximal response (EC50) required 73 nM.

On to `NC(=O)c1nc(C23CCC(CN(C(=O)C45CC(F)(C4)C5)c4cccc(Br)c4)(CC2)CC3)no1` [Example 140, 3-(4-((N-(3-bromophenyl)-3-fluorobicyclo[1.1.1]pentane-1-carboxamido)methyl)bicyclo[2.2.2]octan-1-yl)-1,2,4-oxadiazole-5-carboxamide], for which the EC50 was found to be 721 nM.

`COC(=O)c1cccc(N(CC23CCC(c4noc(C(C)(F)F)n4)(CC2)CC3)C(=O)C23CC(F)(C2)C3)c1` [Example 27, Methyl 3-(N-((4-(5-(1,1-difluoroethyl)-1,2,4-oxadiazol-3-yl)bicyclo[2.2.2]octan-1-yl)methyl)-3-fluorobicyclo[1.1.1]pentane-1-carboxamido)benzoate] registered an EC50 of 72 nM.

`CC(C)(C)c1noc(C23CCC(CN(c4cccc(P(C)(C)=O)c4)C(=O)[C@H]4C[C@](O)(C(F)(F)F)C4)(CC2)CC3)n1` [Example 45, (1S,3S)-N-((4-(3-(tert-butyl)-1,2,4-oxadiazol-5-yl)bicyclo[2.2.2]octan-1-yl)methyl)-N-(3-(dimethylphosphoryl)phenyl)-3-hydroxy-3-(trifluoromethyl)cyclobutane-1-carboxamide] yielded an EC50 of 4000 nM.

For the molecule `CC(F)(F)c1ccc(C23CCC(CN(c4cccc(Nc5ccc(C6(C#N)CC6)cc5)c4)C(=O)[C@H]4C[C@](O)(C(F)(F)F)C4)(CC2)CC3)nc1` [Example 93, (1S,3S)—N-(3-((4-(1-cyanocyclopropyl)phenyl)amino)phenyl)-N-((4-(5-(1,1-difluoroethyl)pyridin-2-yl)bicyclo[2.2.2]octan-1-yl)methyl)-3-hydroxy-3-(trifluoromethyl)cyclobutane-1-carboxamide], a half-maximal response (EC50) required 1420 nM.

Regarding `COc1cccc(N(CC23CCC(c4nc(C5CC5)no4)(CC2)CC3)C(=O)[C@H]2C[C@](O)(C(F)(F)F)C2)c1` [Example 57, (1S,3S)—N-((4-(3-cyclopropyl-1,2,4-oxadiazol-5-yl)bicyclo[2.2.2]octan-1-yl)methyl)-3-hydroxy-N-(3-methoxyphenyl)-3-(trifluoromethyl)cyclobutane-1-carboxamide], a half-maximal effect (EC50) was put at 304 nM.

As for `CC(N(C(=O)C12CC(F)(C1)C2)c1cccc(C#N)c1)C12CCC(c3nc(C4CC4)no3)(CC1)CC2` (centres unmarked) [Example 70, N-(3-cyanophenyl)-N-(1-(4-(3-cyclopropyl-1,2,4-oxadiazol-5-yl)bicyclo[2.2.2]octan-1-yl)ethyl)-3-fluorobicyclo[1.1.1]pentane-1-carboxamide], the EC50 turned out to be 2000 nM.

`CC(F)(F)c1nc(C23CCC(CN(C(=O)C45CC(F)(C4)C5)c4cccc(C(N)=O)c4)(CC2)CC3)no1` [Example 29, N-(3-carbamoylphenyl)-N-((4-(5-(1,1-difluoroethyl)-1,2,4-oxadiazol-3-yl)bicyclo[2.2.2]octan-1-yl)methyl)-3-fluorobicyclo[1.1.1]pentane-1-carboxamide] registered an EC50 of 902 nM.

Regarding `CNS(=O)(=O)c1cccc(N(CC23CCC(c4noc(C(C)(F)F)n4)(CC2)CC3)C(=O)C23CC(F)(C2)C3)c1` [Example 21, N-((4-(5-(1,1-difluoroethyl)-1,2,4-oxadiazol-3-yl)bicyclo[2.2.2]octan-1-yl)methyl)-3-fluoro-N-(3-(N-methylsulfamoyl)phenyl)bicyclo[1.1.1]pentane-1-carboxamide], the EC50 turned out to be 4000 nM.

Molecule `CC(C)(C)c1noc(C23CCC(CN(C(=O)C45CC(F)(C4)C5)c4ccc(Cl)c(Br)c4)(CC2)CC3)n1` [Example 37, N-(3-bromo-4-chlorophenyl)-N-((4-(3-(tert-butyl)-1,2,4-oxadiazol-5-yl)bicyclo[2.2.2]octan-1-yl)methyl)-3-fluorobicyclo[1.1.1]pentane-1-carboxamide] yielded an EC50 of 1080 nM.

Molecule `CC(C)(C)c1nc(C23CCC(CN(C(=O)C45CC(F)(C4)C5)c4cccc(OCC#N)c4)(CC2)CC3)no1` [Example 111, N-((4-(5-(tert-butyl)-1,2,4-oxadiazol-3-yl)bicyclo[2.2.2]octan-1-yl)methyl)-N-(3-(cyanomethoxy)phenyl)-3-fluorobicyclo[1.1.1]pentane-1-carboxamide] had a half-maximal effective concentration (EC50) of 618 nM.

Regarding `CC(F)(F)c1ccc(C23CCC(CN(C(=O)C45CC(F)(C4)C5)c4cccc(C#N)c4)(CC2)CC3)nc1` [Example 49, N-(3-cyanophenyl)-N-((4-(5-(1,1-difluoroethyl)pyridin-2-yl)bicyclo[2.2.2]octan-1-yl)methyl)-3-fluorobicyclo[1.1.1]pentane-1-carboxamide], the EC50 was determined as 327 nM.

The molecule `CC(C)(C)c1nc(C23CCC(CN(C(=O)C45CC(F)(C4)C5)c4cccc(Nc5cnc(C6CC6)nc5)c4)(CC2)CC3)no1` [Example 103, N-((4-(5-(tert-butyl)-1,2,4-oxadiazol-3-yl)bicyclo[2.2.2]octan-1-yl)methyl)-N-(3-((2-cyclopropylpyrimidin-5-yl)amino)phenyl)-3-fluorobicyclo[1.1.1]pentane-1-carboxamide] gave an EC50 of 187 nM.

As to `CCc1ccc(Nc2cccc(N(CC34CCC(c5noc(C(C)(C)C)n5)(CC3)CC4)C(=O)C34CC(F)(C3)C4)c2)cc1` [Example 86, N-((4-(5-(tert-butyl)-1,2,4-oxadiazol-3-yl)bicyclo[2.2.2]octan-1-yl)methyl)-N-(3-((4-ethylphenyl)amino)phenyl)-3-fluorobicyclo[1.1.]pentane-1-carboxamide], the EC50 was 519 nM.

Take `CC(F)(F)c1nc(C23CCC(CN(C(=O)C45CC(F)(C4)C5)c4cccc(P(C)(C)=O)c4)(CC2)CC3)no1` [Example 25, N-((4-(5-(1,1-difluoroethyl)-1,2,4-oxadiazol-3-yl)bicyclo[2.2.2]octan-1-yl)methyl)-N-(3-(dimethylphosphoryl)phenyl)-3-fluorobicyclo[1.1.1]pentane-1-carboxamide]: the response was half-maximal at 4000 nM (EC50).
